US20130072506A1, “6,8-DISUBSTITUTED PURINE COMPOSITIONS” (priority 2011, published 2013)

Columns and labels:
SKH-1 hairless mice = experiment: Hairless mouse assay: skin histology and skin compartment measurements; type: in vivo; settings: H&E stained biopsies, after 3 weeks of treatment
Description: Experimental Design. 48 female SKH-1 hairless mice (5 weeks old, 20-25 grams, Charles River Laboratories, Wilmington, Mass.) are individually housed in filter-top cages, and acclimated for 5-7 days after delivery. The mice are divided into 8 treatment groups (n=6), including two different control groups (untreated control, vehicle control) and a therapeutic control (tretinoin 0.05% Renova™ cream). Cage cards are marked to indicate treatment groups 1-8. Water and mouse chow are provided ad libitum.
Topical Treatments. Beginning on Treatment Day 1, test products are applied topically each morning (Monday through Friday) after erythema evaluations for 3 weeks. Using a positive displacement pipette, 20 mg of each agent is applied to a 2 cm×2 cm area of the center midline of the back. The material was spread across the treatment area with the pipette tip.
Skin Histology. Skin biopsies are taken of each treatment site and untreated control skin. Biopsies are fixed in 4% neutral buffered formalin, embedded in paraffin, and stained with hematoxylin and eosin. The stained skin sections are examined to determine the effects of the treatment on epidermal, dermal, and stratum corneum histology. Biopsies are also microscopically examined for inflammatory cells.
Skin Compartment Measurements. The H&E stained biopsy slides were imaged using a trinocular Olympus BH-2 microscope fitted with a Microfire 2.1×3 Digital Camera. 100× images were digitized and stored on CD using MS Pictureframe and Microfire Software. All compartment images were measured using a calibrated micrometer. An average of three measurements of each compartment for two slide images per biopsy was obtained and tabulated, and means and standard deviations were calculated.

[1] = system: lysosomes of human skin fibroblasts; experiment: Lysosomal staining (Neutral Red); type: cell-based; settings: treated cells compared to the controls
Experimental: (§1) All cell culture experiments were performed on early and mid passage cultures (about 20 to 40% lifespan completed) of normal human skin fibroblast line, designated ASF-2. In order to check the effects of test compounds on senescent cells, late passage cells with more than 90% lifespan completed were used. ASF-2 cell line was established from a mammary skin biopsy obtained from a young, non-smoking and healthy […] at the time of breast reduction operation. Normal culture conditions of medium (DMEM) containing antibiotics, 10% foetal calf serum, and incubation at 37° C. with 95% humidity were used. The effects of the test compounds were determined using the following procedures.
Lysosomal activity. Neutral Red is preferentially taken up into the lysosomes of the cell. Fibroblast cells are maintained in culture and exposed to test compounds over a range of concentrations. The cultures are visually examined after 72 hours, and the number of viable cells and/or the total cell protein content determined, after 72 hours exposure, by the Neutral Red Uptake method. Advantage of Neutral Red assay is that it detects only viable cells. Any material having a localized effect upon the lysosomes will, therefore, result in an artificially low (or possibly high) reflection of cell viability and cell number. […]

[2] = system: mitochondria of ASF-2 cells; experiment: JC-1 staining of mitochondria; type: cell-based, human; settings: 3 days pre-treatment of dermal fibroblasts
Experimental: as §1
Briefly, stock solution of JC-1 (Sigma, M2128) was made at 1 mg/ml in dimethyl sulfoxide. Fresh staining solution […] was prepared by diluting the stock solution in warm (37° C.) culture medium supplemented with 10% calf serum (final conc. 1 μg/ml). Around 3000 cells/ml were seeded in 4 chambered flasks. After three days of incubation, medium is aspirated and one ml of JC-1 staining medium is added, after incubation for 10 mins a cover slip is quickly added and viewed under fluorescent microscope at excitation wavelengths of 488 and 647 nm. […] On depolarization, the orange red punctate staining is replaced by diffuse green monomer fluorescence.

[3] = system: Salmonella typhimurium histidien auxotrophs TA98 and TA100; experiment: Ames test; type: cell-based; settings: 2.5-5000 μg/plate, presence and absence of Aroclor-induced rat liver S9
Experimental: Ames Test. A number of tests related to the safety of these inventive compounds have been carried out using conventionally accepted protocols and procedures. Tests were carried out using DMSO as solvent and dose levels of 8-amino-6-furfurylaminopurine at 2.5, 5.0, 15, 50, 500, 1500, and 5000 μg/plate based upon standard protocol and procedures (Ames et al., Mutation Research, 31, 347-364 (1975); Maron et al., Mutation Research, 113, 173-215 (1983)).

[4] = system: human skin fibroblast line ASF-2; experiment: Actin staining (cytoskeletal organization); type: cell-based; settings: young cells, after 3 days, treated vs untreated
Experimental: as §1
Actin staining. The pattern of cytoskeletal actin staining was studied by staining the cells with florescent ligand FITC-labelled Phalloidin, using a florescence microscope.

[5] = system: human skin fibroblast line ASF-2; experiment: Short-term growth of human skin fibroblasts; type: cell-based; settings: for cellular growth: 200 to 500 μM
Experimental: Experimental Procedures. A stock solution of 4 mM for 6-furfurylamino-8-aminopurine and 8 mM for other compounds were prepared by dissolving about […] per ml 1N HCl, followed by its appropriate dilution by the addition of Hank's buffer. The stock solution was filter sterilized, stored at 4° C., and was used for experiments by dilution it in the cell culture medium as required.
as §1
Growth characteristics. Short-term growth experiments were performed using 24-well tissue culture plates (growth area 1.9 cm^2). Freshly prepared cell suspensions from mass cultures of ASF-2 cells maintained in our labs were used. About 10,000 cells were seeded into 6 sets of 24-well plates. The cells were allowed to attach and stabilize for 24 hr in normal culture medium to achieve various final concentrations (range 40 to 500 μM). Culture medium was changed with the addition of test chemicals twice a week. The numbers of cells were counted after different days of treatment in 2 wells from each concentration of the test chemical, by following the normal method of cell trypsinization and counting using a Coultercounter. The third well in each category was fixed by cold methanol and stained with Giemsa stain for permanent record and for photography. The experiment was carried on for until the cultures became fully confluent and no further growth was possible.

[6] = system: cytokinin-dependent tobacco callus; experiment: Growth of cytokinin-dependent tobacco callus (plant cell division); type: cell-based, Nicotiana tabacum L. cv. Wisconsin 38; settings: at concentration with highest activity; activity of kinetin set at 100%
Experimental: The effect on plant cell division. Cytokinin-dependent tobacco callus Nicotiana tabacum L. cv. Wisconsin 38 was maintained at 25° C. in darkness on modified MS medium, containing 4 μmol/l nicotinic acid, 2.4 μmol/l pyridoxine hydrochloride, 1.2 μmol/l thiamine, 26.6 μmol/l glycine, 1.37 μmol/l glutamine, 1.8 μmol/1 myo-inositol, 30 g/l of sucrose, 8 g/l of agar, 5.37 μmol/l NAA and 0.5 μmol/l BAP. Subcultivation was carried out every three weeks. Fourteen days before the bioassay, the callus tissue was transferred to the media without BAP. Biological activity was determined from the increase in fresh callus weight after four weeks of cultivation. Five replicates were prepared for each cytokinin concentration and the entire test was repeated twice. From the obtained data, the concentration with highest activity was selected for each compound tested. Relative activity at this concentration was calculated (see Table 4 below).
The cytokinins to be tested were dissolved in dimethylsulfoxide (DMSO) and the solution brought up to 10^−3M with distilled water.

Nc1nc2c(NCc3ccco3)ncnc2[nH]1 [Compound 82, 6-furfurylamino-8-aminopurine]
skin compartment thickness (SKH-1 hairless mice): least effect on skin thickness | lysosomes (Neutral Red staining) [1]: larger and more numerous | JC-1 staining [2]: punctate orange-red fluorescent staining | mutagenic responses [3]: no positive mutagenic responses | actin staining pattern [4]: no obvious differences | Cell growth ([5]; 80 μM vs untreated): similar | cellular growth [5]: significantly inhibited | cellular growth ([5]; after 9 days): almost a total inhibition | Activity (%) [6]: 150.10%
